Measurements as given in ChEMBL document CHEMBL4145634, “Discovery of Janus Kinase 2 (JAK2) and Histone Deacetylase (HDAC) Dual Inhibitors as a Novel Strategy for the Combinational Treatment of Leukemia and Invasive Fungal Infections” (J Med Chem, 2018).
Values after ≈ are worked out from the molar mass of the structure shown. Active and inactive are the calls of the source. The rule behind the calls is not given here.

Assays:
HEL [1] = test: Antiproliferative activity against human HEL cells after 48 hrs by CCK-8 assay; format: functional, cell-based
Candida albicans [2] = test: microbe, parasite or virus in culture; format: functional; conditions: Candida albicans, 0304103, 48 h
Description: Antifungal activity against FLC resistant Candida albicans 0304103 after 48 hrs by checkerboard microdilution method

HEL [3] = test: Antitumor activity against human HEL cells xenografted in BALB/C nude mouse assessed as tumor growth inhibition at 10 mg/kg, ip bid treated for 21 consecutive days relative to control; format: functional; conditions: read-out: TGI
Mus musculus [4] = test: Protection against spleen enlargement in SCID mouse xenografted with human HEL cells at 10 mg/kg, ip qd; format: functional, organism-based
K562 [5] = test: Antiproliferative activity against human K562 cells after 48 hrs by CCK-8 assay; format: functional, cell-based; conditions: K562, 48 h
HEL [6] = test: Antitumor activity in human HEL cells xenografted in SCID mouse assessed as mouse survival time at 10 mg/kg, ip qd; format: functional
Candida albicans [7] = test: Antifungal activity against FLC resistant Candida albicans 100 after 48 hrs by checkerboard microdilution method; format: functional; conditions: Candida albicans, 100, 48 h
HEL [8] = test: Antiproliferative activity against human HEL cells after 48 hrs in presence of JAK2 inhibitor CYT-387 by CCK-8 assay; format: functional, cell-based
Mus musculus [9] = test: In vivo antifungal activity against FLC resistant Candida albicans 0304103 infected in ICR mouse assessed as mouse survival at 5 mg/kg, ip qd up to 20 days in co-treated with 1 mg/kg, ip qd fluconazol (reference value: 4.5 day); format: functional
Mus musculus [10] = test: In vivo antifungal activity against FLC resistant Candida albicans 0304103 infected in ICR mouse assessed as mouse survival at 5 mg/kg, ip qd up to 20 days (reference value: 4.5 day); format: functional, organism-based
K562 [11] = test: Antiproliferative activity against human K562 cells after 48 hrs in presence of JAK2 inhibitor CYT-387 by CCK-8 assay; format: functional, cell-based; conditions: K562, 48 h
HL-60 [12] = test: Antiproliferative activity against human HL60 cells after 48 hrs by CCK-8 assay; format: functional, cell-based; conditions: HL-60, 48 h
Candida albicans [13] = test: microbe, parasite or virus in culture; format: functional; conditions: Candida albicans, 0710922, 48 h
Description: Antifungal activity against FLC resistant Candida albicans 0710922 after 48 hrs by checkerboard microdilution method

HL-60 [14] = test: Antiproliferative activity against human HL60 cells after 48 hrs in presence of JAK2 inhibitor CYT-387 by CCK-8 assay; format: functional, cell-based; conditions: HL-60, 48 h
Candida albicans [15] = test: microbe, parasite or virus in culture; format: functional; conditions: Candida albicans, 0710922, 48 h; remark: listed apart in the source
Description: Antifungal activity against FLC resistant Candida albicans 0710922 assessed as fluconazol MIC50 after 48 hrs by checkerboard microdilution method

Candida albicans [16] = test: Synergistic antifungal activity against FLC resistant Candida albicans 100 assessed as FIC index after 48 hrs by checkerboard microdilution method; format: functional
[17] = biological target: Tyrosine-protein kinase JAK2 (Homo sapiens, UniProt O60674); test: Inhibition of JAK2 (unknown origin) using FAM-labeled peptide as substrate preincubated for 10 mins followed by substrate addition and measured after 25 mins in presence of ATP
Candida albicans [18] = test: microbe, parasite or virus in culture; format: functional; conditions: Candida albicans, 0710922, 48 h; remark: listed apart in the source
Description: Antifungal activity against FLC resistant Candida albicans 0710922 after 48 hrs in presence of fluconazol by checkerboard microdilution method

Histone deacetylase 1 = Histone deacetylase 1 (Homo sapiens, UniProt Q13547); test: Inhibition of full length human recombinant HDAC1 expressed in baculovirus expression system using (Ac-Leu-Gly-Lys(Ac)-AMC as substrate preincubated for 5 mins followed by substrate addition and measured after 30 mins by fluorescence assay
Candida albicans [19] = test: Synergistic antifungal activity against FLC resistant Candida albicans 0710922 assessed as FIC index after 48 hrs by checkerboard microdilution method; format: functional
Candida albicans [20] = test: microbe, parasite or virus in culture; format: functional; conditions: Candida albicans, 0304103, 48 h; remark: listed apart in the source
Description: Antifungal activity against FLC resistant Candida albicans 0304103 after 48 hrs in presence of fluconazol by checkerboard microdilution method

Candida albicans [21] = test: Antifungal activity against FLC resistant Candida albicans 100 after 48 hrs in presence of fluconazol by checkerboard microdilution method; format: functional; conditions: Candida albicans, 100, 48 h
Candida albicans [22] = test: microbe, parasite or virus in culture; format: functional; conditions: Candida albicans, 100, 48 h
Description: Antifungal activity against FLC resistant Candida albicans 100 assessed as fluconazol MIC50 after 48 hrs by checkerboard microdilution method

Candida albicans [23] = test: Synergistic antifungal activity against FLC resistant Candida albicans 0304103 assessed as FIC index after 48 hrs by checkerboard microdilution method; format: functional
Candida albicans [24] = test: microbe, parasite or virus in culture; format: functional; conditions: Candida albicans, 0304103, 48 h; remark: listed apart in the source
Description: Antifungal activity against FLC resistant Candida albicans 0304103 assessed as fluconazol MIC50 after 48 hrs by checkerboard microdilution method

Chain of Histone deacetylase 1 (Q13547 whole entry): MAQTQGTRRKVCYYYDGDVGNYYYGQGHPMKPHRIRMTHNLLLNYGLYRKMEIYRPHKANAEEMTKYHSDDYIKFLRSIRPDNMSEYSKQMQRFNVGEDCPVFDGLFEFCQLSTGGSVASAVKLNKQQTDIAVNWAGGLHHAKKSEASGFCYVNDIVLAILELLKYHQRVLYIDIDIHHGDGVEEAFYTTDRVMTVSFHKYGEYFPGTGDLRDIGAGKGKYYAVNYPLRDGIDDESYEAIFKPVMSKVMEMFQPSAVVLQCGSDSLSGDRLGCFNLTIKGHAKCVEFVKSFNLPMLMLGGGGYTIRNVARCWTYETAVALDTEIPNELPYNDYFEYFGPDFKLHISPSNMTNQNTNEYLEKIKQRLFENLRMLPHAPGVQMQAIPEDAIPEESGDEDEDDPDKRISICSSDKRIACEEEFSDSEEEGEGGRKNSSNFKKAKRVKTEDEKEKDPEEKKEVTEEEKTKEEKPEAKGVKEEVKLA
Chain of Tyrosine-protein kinase JAK2 (O60674 whole entry): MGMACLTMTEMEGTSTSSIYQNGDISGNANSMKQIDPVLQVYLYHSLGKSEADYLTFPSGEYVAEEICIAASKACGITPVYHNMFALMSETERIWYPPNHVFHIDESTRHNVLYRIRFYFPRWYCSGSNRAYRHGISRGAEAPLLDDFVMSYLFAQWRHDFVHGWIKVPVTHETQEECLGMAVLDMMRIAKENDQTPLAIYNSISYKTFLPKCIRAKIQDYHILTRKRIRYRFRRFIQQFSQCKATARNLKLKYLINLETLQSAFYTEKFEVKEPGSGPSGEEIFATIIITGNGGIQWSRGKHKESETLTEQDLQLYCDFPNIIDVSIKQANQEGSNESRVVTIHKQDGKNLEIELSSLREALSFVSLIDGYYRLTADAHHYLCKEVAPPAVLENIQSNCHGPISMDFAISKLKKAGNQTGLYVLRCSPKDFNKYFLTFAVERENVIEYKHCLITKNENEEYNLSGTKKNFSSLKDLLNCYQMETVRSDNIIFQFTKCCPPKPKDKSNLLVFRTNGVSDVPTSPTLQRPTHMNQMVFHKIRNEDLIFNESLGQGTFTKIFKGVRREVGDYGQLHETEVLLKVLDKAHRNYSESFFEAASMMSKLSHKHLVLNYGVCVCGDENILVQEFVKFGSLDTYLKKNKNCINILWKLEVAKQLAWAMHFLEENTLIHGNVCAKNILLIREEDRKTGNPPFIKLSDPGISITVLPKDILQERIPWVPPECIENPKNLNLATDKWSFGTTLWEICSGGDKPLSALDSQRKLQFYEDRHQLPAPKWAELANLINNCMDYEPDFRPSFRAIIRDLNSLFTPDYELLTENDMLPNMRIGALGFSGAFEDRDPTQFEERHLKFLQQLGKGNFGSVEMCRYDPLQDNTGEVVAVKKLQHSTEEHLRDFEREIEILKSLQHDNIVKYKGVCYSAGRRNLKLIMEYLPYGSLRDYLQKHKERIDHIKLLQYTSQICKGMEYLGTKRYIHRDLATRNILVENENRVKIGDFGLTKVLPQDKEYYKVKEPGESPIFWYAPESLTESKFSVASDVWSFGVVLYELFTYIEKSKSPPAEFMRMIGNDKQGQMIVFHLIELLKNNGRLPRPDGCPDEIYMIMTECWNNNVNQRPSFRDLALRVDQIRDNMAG

| SMILES | IC50 (HEL [1]) [µM] | MIC50 (Candida albicans [2]) [µg/mL] | IC50 (K562 [5]) [µM] | MIC50 (Candida albicans [7]) [µg/mL] | IC50 (HL-60 [12]) [µM] | MIC50 (Candida albicans [13]) [µg/mL] | MIC50 (Candida albicans [15]) [µg/mL] | fractional inhibitory concentration index (FICI) (Candida albicans [16]) | IC50 [17] [µM] | MIC50 (Candida albicans [18]) [µg/mL] | IC50 (Histone deacetylase 1) [µM] | fractional inhibitory concentration index (FICI) (Candida albicans [19]) | MIC50 (Candida albicans [20]) [µg/mL] | MIC50 (Candida albicans [21]) [µg/mL] | MIC50 (Candida albicans [22]) [µg/mL] | fractional inhibitory concentration index (FICI) (Candida albicans [23]) | MIC50 (Candida albicans [24]) [µg/mL] | further results |
| --- | --- | --- | --- | --- | --- | --- | --- | --- | --- | --- | --- | --- | --- | --- | --- | --- | --- | --- |
| Nc1cc(F)ccc1NC(=O)/C=C/c1cnn(C/C=C/c2ccccc2)c1 | 21.7 to 33.6 | > 64 | 21.7 to 33.6 | > 64 | 21.7 to 33.6 | > 64 |  |  |  |  |  |  |  |  |  |  |  | inhibition in vivo at 10 mg/kg (HEL [3]): 16.4%; Activity (Mus musculus [4]): inactive; Activity (HEL [6]): inactive; IC50 (HEL [8]): 1.64 to 4.19 µM; MST (Mus musculus [9]): 5 days; Activity (Mus musculus [10]): inactive; IC50 (K562 [11]): 1.64 to 4.19 µM; IC50 (HL-60 [14]): 1.64 to 4.19 µM |
| CS(=O)(=O)Nc1ccc(-c2ccnc(Nc3ccc(N4CCC(C(=O)NCc5ccc(C(=O)NO)cc5)CC4)cc3)n2)cc1 | 6.3 | > 64 | 10 | > 64 | > 50 | > 64 | 0.5 (≈ 0.812 µM) | 0.078 | 0.018 | 64 (≈ 104 µM) | 1.1 | 1.01 | 8 (≈ 13 µM) | 4 | 1 (≈ 1.62 µM) | 0.15 | 2 (≈ 3.25 µM) |  |
| CS(=O)(=O)Nc1ccc(-c2ccnc(Nc3ccc(N4CCC(C(=O)NCCCC(=O)NO)CC4)cc3)n2)cc1 | 12 | 32 (≈ 56.4 µM) | 12 | > 64 | > 50 | > 64 | 0.5 (≈ 0.881 µM) | 0.14 | 0.001 | 32 (≈ 56.4 µM) | 9.2 | 0.51 | 8 (≈ 14.1 µM) | 8 | 1 (≈ 1.76 µM) | 0.31 | 4 (≈ 7.05 µM) |  |
| N#CCNC(=O)c1ccc(-c2ccnc(Nc3ccc(N4CCC(C(=O)Nc5ccccc5N)CC4)cc3)n2)cc1 | 6.6 | > 64 | > 50 | > 64 | > 50 | > 64 | 64 (≈ 117 µM) | >2 | 0.008 | 64 (≈ 117 µM) | 1.7 | 2 | > 64 | > 64 | > 64 | >2 | > 64 |  |
| CS(=O)(=O)Nc1ccc(-c2ccnc(Nc3ccc(N4CCC(C(=O)Nc5ccc(C(=O)NO)cc5)CC4)cc3)n2)cc1 | 2 | > 64 | 8.6 | > 64 | 11 | > 64 | > 64 | 1.25 | 0.002 | > 64 | 0.38 | >2 | > 64 | 64 | 16 (≈ 26.6 µM) | >2 | > 64 |  |
| Nc1ccccc1NC(=O)c1ccc(-c2ccnc(Nc3ccc(N4CCOCC4)cc3)n2)cc1 | > 50 | > 64 | > 50 | > 64 | > 50 | > 64 | > 64 | 1.01 | 0.11 | > 64 | > 50 | >2 | > 64 | 64 | 0.5 (≈ 1.07 µM) | >2 | > 64 |  |
| CS(=O)(=O)Nc1ccc(-c2ccnc(Nc3ccc(N4CCC(C(=O)NCCCCC(=O)NO)CC4)cc3)n2)cc1 | 8.1 | 32 (≈ 55 µM) | 11 | > 64 | > 50 | > 64 | 0.5 (≈ 0.86 µM) | 0.26 | 0.001 | 32 (≈ 55 µM) | 2.2 | 0.51 | 16 (≈ 27.5 µM) | 16 | 0.5 (≈ 0.86 µM) | 0.5 | 0.5 (≈ 0.86 µM) |  |
